SMILES strings stand for the structures. Active and inactive are the calls of the source. The rule behind the calls is not given here. *1 amine or outer side, *2 acyl side, *3 side chain or, on linkers, in order; H or OH if unused. Where a SMILES comes first, the peptide text is derived from it. Bridges are numbered along the chain shown (N, C = ends). [ ]: non-standard residue; d: D form. Phe(3R-OH) = O=C([C@@H](N[*:1])[C@H](O[*:3])c1ccccc1)[*:2]; NMeTrp(4-OMe) = CN[C@@H](Cc1c[nH]c2cccc(OC)c12)C(=O)O; NMeT = CN[C@H](C(=O)O)[C@@H](C)O; NMeL = CN[C@@H](CC(C)C)C(=O)O; NMeV = CN[C@H](C(=O)O)C(C)C

Consider one compound from ChEMBL document CHEMBL4342450, “Antitumor Activity of Ohmyungsamycin A through the Regulation of the Skp2-p27 Axis and MCM4 in Human Colorectal Cancer Cells” (J Nat Prod, 2020).

For test [1], the system named is HCT-116. Kind of test: Induction of cell cycle arrest in human HCT116 cells assessed as accumulation at G0/G1 phase at 5 uM incubated for 18 hrs by propidium iodide staining based flow cytometry (reference value: 43.3%). It counts as functional. (A flow cytometer gives signals particle by particle.)
The test system of test [2] is HCT-116. The test is described as follows: Induction of morphological changes in human HCT116 cells assessed as appearance of pin-point shape cells at 4 to 20 uM by inverted phase-contrast microscopic method. It is filed as functional, cell-based.
Test [3] has as its system HCT-116. The test is described as follows: Downregulation of CYP24A1 gene expression in human HCT116 cells assessed as fold change at 15 uM incubated for 24 hrs by cDNA microarray analysis relative to control. It counts as functional.
Test [4] concerns HCT-116. Kind of test: Downregulation of HSPA1B gene expression in human HCT116 cells assessed as fold change at 15 uM incubated for 24 hrs by cDNA microarray analysis relative to control. It is filed as functional.
For test [5], the system named is HCT-116. The test is described as follows: Downregulation of DKK1 gene expression in human HCT116 cells assessed as fold change at 15 uM incubated for 24 hrs by cDNA microarray analysis relative to control. It counts as functional.
For test [6], the system named is HCT-116. Kind of test: Induction of cell cycle arrest in human HCT116 cells assessed as accumulation at S phase at 5 uM incubated for 18 hrs by propidium iodide staining based flow cytometry (reference value: 26.8%). It is filed as functional.
Test [7] has as its system HCT-116. The test is described as follows: Induction of cell cycle arrest in human HCT116 cells assessed as accumulation at S phase at 10 uM incubated for 18 hrs by propidium iodide staining based flow cytometry (reference value: 26.8%). It is filed as functional.
The subject of test [8] is HCT-116. The test is described as follows: Induction of cell cycle arrest in human HCT116 cells assessed as accumulation at sub-G1 phase at 10 uM incubated for 18 hrs by propidium iodide staining based flow cytometry (reference value: 0.9%). It counts as functional.
The subject of test [9] is HCT-116. The test is described as follows: Induction of cell cycle arrest in human HCT116 cells assessed as accumulation at S phase at 20 uM incubated for 18 hrs by propidium iodide staining based flow cytometry (reference value: 26.8%). It counts as functional.
In test [10] the test system is HCT-116. Kind of test: Downregulation of MCM4 protein expression in human HCT116 cells at 5 to 20 uM after 24 hrs by Western blot analysis. It counts as functional, cell-based.
In test [11] the test system is HCT-116. The test is described as follows: Effect on Cul1 expression in human HCT116 cells at 5 to 20 uM after 24 hrs by Western blot analysis. It counts as functional, cell-based. In general terms: Immunoblotting shows a protein as a band on a membrane.
Test [12] concerns HCT-116. Kind of test: Antitumor activity against human HCT116 cells xenografted in BALB/c nude mouse assessed as reduction in tumor volume at 5 to 10 mg/kg, ip administered thrice a week for 3.5 weeks and measured […] by caliper method. It counts as functional, organism-based. In general terms: In xenograft studies the graft and the host belong to different species.

For test [13], the system named is Mus musculus. Kind of test: In vivo modulation of Skp2-p27 axis in tumor of BALB/c mouse xenografted with human HCT116 cells assessed as upregulation of p27 mRNA level at 5 to 10 m/kg, ip administered thrice a week for 3.5 weeks by RT-PCR method. It counts as functional, organism-based.

As to `CN[C@H](C(=O)N[C@H](C(=O)N[C@@H]1C(=O)N(C)[C@@H]([C@@H](C)O)C(=O)N[C@@H](C(C)C)C(=O)N(C)[C@@H](CC(C)C)C(=O)N[C@@H](C(C)C)C(=O)N(C)[C@@H](C(C)C)C(=O)N(C)[C@@H](Cc2c[nH]c3cccc(OC)c23)C(=O)N[C@@H](C(C)C)C(=O)N[C@@H]([C@H](O)c2ccccc2)C(=O)N[C@@H](C(C)C)C(=O)O[C@@H]1C)C(C)C)C(C)C` (H-[NMeV]VT[NMeT]V[NMeL]V[NMeV][NMeTrp(4-OMe)]V[Phe(3R-OH)]V; ester 3-C), the Activity in test [1] was 45.8%; in [6], 27.5%; in [7], 26.6%; in test [8] it was 1.8%; in [9] it was 16%. In addition, the result in [2], in test [12] and in [13] was Active. The figures for the “fold change (FC)” value in test [3], in [4] and in [5] were 18.5, 4.531 and 4.144, respectively. Also, the inhibition entry in test [10] was “Active”. The result in test [11] was inactive.
